Entries after “also recorded” stand apart in the source; their conditions may differ.
Assays:
[1] = system: peptide-pulsed T2 cells; experiment: IFN-gamma ELISA assay of CTL lines (HLA-A*0201); type: cell-based, human; details: CTL lines stimulated with peptide, target cells pulsed with peptide vs without peptide pulse
Experimental: CTLs were expanded in culture using the method similar to the one described by Riddell et al. (Walter E A et al., N Engl J Med 1995, 333(16): 1038-44; Riddell S R et al., Nat Med 1996, 2(2): 216-23). A total of 5×10^4 CTLs were suspended in 25 ml of AIM-V/5% AS medium with 2 kinds of human B-lymphoblastoid cell lines, inactivated by Mitomycin C, in the presence of 40 ng/ml of anti-CD3 monoclonal antibody (Pharmingen). One day after initiating the cultures, 120 IU/ml of IL-2 were added to the cultures. The cultures were fed with fresh AIM-V/5% AS medium containing 30 IU/ml of IL-2 on days 5, 8 and 11 (Tanaka H et al., Br J Cancer 2001, 84(1): 94-9; Umano Y et al., Br J Cancer 2001, 84(8): 1052-7; Uchida N et al., Clin Cancer Res 2004, 10(24): 8577-86; Suda T et al., Cancer Sci 2006, 97(5): 411-9; Watanabe T et al., Cancer Sci 2005, 96(8): 498-506).
(§1) Specifically, peptide-pulsed T2 (1×10^4/well) was prepared as stimulator cells. Cultured cells in 48 wells were used as responder cells. IFN-gamma ELISPOT assay and IFN-gamma ELISA assay were performed under manufacture procedure.
(§2) CTL activity of these CTL lines was determined by IFN-gamma ELISA assay (FIG. 6a-d). […] Furthermore, the CTL clones were established by limiting dilution from the CTL lines as described in “Materials and Methods”, and IFN-gamma production from the CTL clones against target cells pulsed peptide was determined by IFN-gamma ELISA assay.

[2] = system: peptide-pulsed T2 cells; experiment: In vitro CTL induction, IFN-gamma ELISPOT assay (HLA-A*0201); type: cell-based, human; details: CTLs induced with peptide from HLA-A*0201 positive donor, peptide-pulsed T2 vs control
From the text: Monocyte-derived dendritic cells (DCs) were used as antigen-presenting cells to induce cytotoxic T lymphocyte (CTL) responses against peptides presented on human leukocyte antigen (HLA). DCs were generated in vitro as described elsewhere (Nakahara S et al., Cancer Res 2003, 63(14): 4112-8). Specifically, peripheral blood mononuclear cells isolated from a normal volunteer (HLA-A*0201 positive) by Ficoll-Plaque (Pharmacia) solution were separated by adherence to a plastic tissue culture dish (Becton Dickinson) so as to enrich them as the monocyte fraction. The monocyte-enriched population was cultured in the presence of 1000 U/ml of granulocyte-macrophage colony-stimulating factor (R&D System) and 1000 U/ml of interleukin (IL)-4 (R&D System) in AIM-V Medium (Invitrogen) containing 2% heat-inactivated autologous serum (AS). After 7 days of culture, the cytokine-induced DCs were pulsed with 20 micro-g/ml of each of the synthesized peptides in the presence of 3 micro-g/ml of beta 2-microglobulin for 3 hr at 37 degrees C. in AIM-V Medium. The generated cells appeared to express DC-associated molecules, such as CD80, CD83, CD86 and HLA class II, on their cell surfaces (data not shown). These peptide-pulsed DCs were then inactivated by X-irradiation (20 Gy) and mixing at a 1:20 ratio with autologous CD8+ T cells, obtained by positive selection with CD8 Positive Isolation Kit (Dynal). These cultures were set up in 48-well plates (Corning); each well contained 1.5×10^4 peptide-pulsed DCs, 3×10^5 CD8+ T cells and 10 ng/ml of IL-7 (R&D System) in 0.5 ml of AIM-V/2% AS medium. Three days later, these cultures were supplemented with IL-2 (CHIRON) to a final concentration of 20 IU/ml. On day 7 and 14, the T cells were further stimulated with the autologous peptide-pulsed DCs. The DCs were prepared each time by the same way described above. CTL was tested against peptide-pulsed T2 cells after the 3rd round of peptide stimulation on day 21 (Tanaka H et al., Br J Cancer 2001, 84(1): 94-9; Umano Y et al., Br J Cancer 2001, 84(8): 1052-7; Uchida N et al., Clin Cancer Res 2004, 10(24): 8577-86; Suda T et al., Cancer Sci 2006, 97(5): 411-9; Watanabe T et al., Cancer Sci 2005, 96(8): 498-506).
as §1
CTLs for those peptides derived from TTLL4 were generated according to the protocols as described in “Materials and Methods”.

[3] = system: peptide-pulsed T2 cells; experiment: IFN-gamma ELISA assay of CTL clones (HLA-A*0201); type: cell-based, human; details: CTL clones by limiting dilution, target cells pulsed with peptide vs control
Experimental: The dilutions were made to have 0.3, 1, and 3 CTLs/well in 96 round-bottomed micro titer plate (Nalge Nunc International). CTLs were cultured with 1×10^4 cells/well of 2 kinds of human B-lymphoblastoid cell lines, 30 ng/ml of anti-CD3 antibody, and 125 U/ml of IL-2 in a total of 150 micro-l/well of AIM-V Medium containing 5% AS. 50 micro-l/well of IL-2 were added to the medium 10 days later so to reach a final concentration of 125 U/ml IL-2. CTL activity was tested on the 14th day, and CTL clones were expanded using the same method as described above (Uchida N et al., Clin Cancer Res 2004, 10(24): 8577-86; Suda T et al., Cancer Sci 2006, 97(5): 411-9; Watanabe T et al., Cancer Sci 2005, 96(8): 498-506).
as §1, §2

[4] = system: COS7 cells transfected with TTLL4 and HLA-A*0201; experiment: Specific CTL activity against target cells expressing TTLL4 and HLA-A*0201; type: cell-based, African green monkey; details: for Specific CTL activity against COS7 cells transfected with both TTLL4 and HLA-A*0201: CTL clone (9-805) or CTL line (9-66) established with peptide; for Specific CTL activity against control COS7 cells expressing either HLA-A*0201 or TTLL4: controls: COS7 transfected with only full length TTLL4 or only HLA-A*0201
From the text: The cDNA encoding an open reading frame of target genes or HLA-A*0201 was amplified by PCR. The PCR-amplified product was cloned into a vector. The plasmids were transfected into COST, which is the target genes and HLA-A*0201-null cell line, using lipofectamine 2000 (Invitrogen) according to the manufacturer's recommended procedures. After 2 days from transfection, the transfected cells were harvested with versene (Invitrogen) and used as the target cells (5×10^4 cells/well) for CTL activity assay.
The established CTL lines and clones raised against each peptide were examined for the ability to recognize target cells that express TTLL4 and HLA-A*0201 molecule. […] COS7 cells transfected with either full length of TTLL4 or HLA-A*0201 were prepared as the controls.

ALIYSLFPNV [SEQ ID NO: 59] was tested, and the “IFN-gamma production of CTL lines (ELISA)” value [1] was “potent IFN-gamma production”, the “Peptide specific CTL activity (IFN-gamma production, ELISPOT)” value (“Peptide specific CTL activity” below) ([2]; listed as TTLL4-A02-10-574) was “potent IFN-gamma production; also recorded: significant and specific CTL activity” and the “IFN-gamma production of CTL clones (ELISA)” value ([3]; listed as TTLL4-A02-10-574) was “Potent IFN-gamma productions”.

In the case of FMHLTNYSV [SEQ ID NO: 39], the “IFN-gamma production of CTL lines (ELISA)” value [1] is reported as “potent IFN-gamma production”, the “Specific CTL activity against COS7 cells transfected with both TTLL4 and HLA-A*0201” value ([4]; listed as TTLL4-A02-9-805) is reported as “specific CTL activity; also recorded: potent CTL activity” and the “Specific CTL activity against control COS7 cells expressing either HLA-A*0201 or TTLL4” value [4] is reported as “no significant specific CTL activity was detected”. For the same sequence, the “Peptide specific CTL activity” value ([2]; listed as TTLL4-A02-9-805) was “potent IFN-gamma production; also recorded: significant and specific CTL activity” and the “IFN-gamma production of CTL clones (ELISA)” value ([3]; listed as TTLL4-A02-9-805) was “Potent IFN-gamma productions”.

In the case of FMWPNSTPV [SEQ ID NO: 38], the “IFN-gamma production of CTL lines (ELISA)” value [1] is reported as “potent IFN-gamma production”, the “Peptide specific CTL activity” value ([2]; listed as TTLL4-A02-9-222) is reported as “potent IFN-gamma production; also recorded: significant and specific CTL activity” and the “IFN-gamma production of CTL clones (ELISA)” value ([3]; listed as TTLL4-A02-9-222) is reported as “Potent IFN-gamma productions”.

In the case of GLGPGLLGV [SEQ ID NO: 44], the “IFN-gamma production of CTL lines (ELISA)” value [1] is reported as “potent IFN-gamma production”, the “Specific CTL activity against COS7 cells transfected with both TTLL4 and HLA-A*0201” value ([4]; listed as TTLL4-A02-9-66) is reported as “specific CTL activity; also recorded: potent CTL activity” and the “Specific CTL activity against control COS7 cells expressing either HLA-A*0201 or TTLL4” value [4] is reported as “no significant specific CTL activity was detected”. The “Peptide specific CTL activity” value ([2]; listed as TTLL4-A02-9-66) was “potent IFN-gamma production; also recorded: significant and specific CTL activity”.

From patent US20130224234A1, “TTLL4 PEPTIDES AND VACCINES CONTAINING THE SAME” (Onco Therapy Science, Inc., priority 2010, published 2013)
